In patent US11547697B2, “Heterocyclic compounds and uses thereof” (MILLENNIUM PHARMACEUTICALS, INC., priority 2009, dated 2023):
Like-named read-outs stand apart in the source and are kept apart here.

Tests used:
Type in all cases: biochemical
p110α/p85α = p110α/p85α (Homo sapiens (Human), UniProt P42336); experiment: PI 3-Kinase (human) HTRF assay, p110α/p85α
p110β/p85α = p110β/p85α (Homo sapiens (Human), UniProt P42338); experiment: PI 3-Kinase (human) HTRF assay, p110β/p85α
p110δ/p85α = p110δ/p85α (Homo sapiens (Human), UniProt O00329); experiment: PI 3-Kinase (human) HTRF assay, p110δ/p85α
Sequence of p110δ/p85α (O00329 whole entry): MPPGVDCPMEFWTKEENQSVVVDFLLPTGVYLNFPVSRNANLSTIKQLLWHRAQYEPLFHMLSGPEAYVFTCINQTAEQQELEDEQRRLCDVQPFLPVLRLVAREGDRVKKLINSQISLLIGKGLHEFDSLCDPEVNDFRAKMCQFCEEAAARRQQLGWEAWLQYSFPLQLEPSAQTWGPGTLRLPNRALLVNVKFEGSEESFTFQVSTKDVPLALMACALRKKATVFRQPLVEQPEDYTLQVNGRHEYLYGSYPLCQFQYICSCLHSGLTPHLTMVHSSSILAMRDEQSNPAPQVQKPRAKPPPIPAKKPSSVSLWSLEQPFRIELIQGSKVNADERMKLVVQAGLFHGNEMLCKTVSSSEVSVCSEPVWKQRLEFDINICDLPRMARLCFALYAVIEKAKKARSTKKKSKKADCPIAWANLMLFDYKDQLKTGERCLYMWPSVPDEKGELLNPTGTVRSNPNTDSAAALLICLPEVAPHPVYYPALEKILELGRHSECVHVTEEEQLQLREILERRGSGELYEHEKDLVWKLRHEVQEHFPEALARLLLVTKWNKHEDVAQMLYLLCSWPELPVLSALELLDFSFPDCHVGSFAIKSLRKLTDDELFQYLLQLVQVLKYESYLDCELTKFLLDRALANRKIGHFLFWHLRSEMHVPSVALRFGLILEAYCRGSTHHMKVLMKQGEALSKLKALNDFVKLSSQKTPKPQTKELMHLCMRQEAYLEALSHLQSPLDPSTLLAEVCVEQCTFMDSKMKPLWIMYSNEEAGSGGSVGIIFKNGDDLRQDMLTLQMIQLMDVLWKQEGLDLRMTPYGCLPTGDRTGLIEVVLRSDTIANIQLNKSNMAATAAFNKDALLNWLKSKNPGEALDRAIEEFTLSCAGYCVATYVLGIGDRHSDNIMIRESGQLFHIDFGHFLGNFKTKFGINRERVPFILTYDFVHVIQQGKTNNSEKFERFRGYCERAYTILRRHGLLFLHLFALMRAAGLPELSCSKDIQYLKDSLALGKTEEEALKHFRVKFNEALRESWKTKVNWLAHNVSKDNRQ
Sequence of p110δ/p85α (P27986 whole entry partner): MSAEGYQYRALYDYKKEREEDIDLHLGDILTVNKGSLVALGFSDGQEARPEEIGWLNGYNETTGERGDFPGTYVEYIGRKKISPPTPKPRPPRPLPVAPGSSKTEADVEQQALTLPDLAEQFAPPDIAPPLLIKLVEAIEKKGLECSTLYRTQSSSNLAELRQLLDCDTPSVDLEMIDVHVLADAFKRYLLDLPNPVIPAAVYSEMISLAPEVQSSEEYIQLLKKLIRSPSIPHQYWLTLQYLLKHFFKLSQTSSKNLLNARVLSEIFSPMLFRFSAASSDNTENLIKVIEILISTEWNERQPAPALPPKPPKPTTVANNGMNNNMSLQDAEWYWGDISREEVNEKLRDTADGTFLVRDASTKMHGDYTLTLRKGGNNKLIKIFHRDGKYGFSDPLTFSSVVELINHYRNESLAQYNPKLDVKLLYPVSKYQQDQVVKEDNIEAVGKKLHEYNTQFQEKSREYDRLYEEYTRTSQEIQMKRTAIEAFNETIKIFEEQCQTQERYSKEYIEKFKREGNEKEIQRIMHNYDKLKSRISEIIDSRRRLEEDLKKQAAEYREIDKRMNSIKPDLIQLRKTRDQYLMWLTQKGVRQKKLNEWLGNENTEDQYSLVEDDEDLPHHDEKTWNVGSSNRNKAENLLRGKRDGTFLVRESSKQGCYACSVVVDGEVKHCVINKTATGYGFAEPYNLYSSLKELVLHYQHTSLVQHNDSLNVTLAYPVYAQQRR

p110γ = p110γ (Homo sapiens (Human), UniProt P48736); experiment: PI 3-Kinase (human) HTRF assay, p110γ
Sequence of p110γ (P48736 whole entry): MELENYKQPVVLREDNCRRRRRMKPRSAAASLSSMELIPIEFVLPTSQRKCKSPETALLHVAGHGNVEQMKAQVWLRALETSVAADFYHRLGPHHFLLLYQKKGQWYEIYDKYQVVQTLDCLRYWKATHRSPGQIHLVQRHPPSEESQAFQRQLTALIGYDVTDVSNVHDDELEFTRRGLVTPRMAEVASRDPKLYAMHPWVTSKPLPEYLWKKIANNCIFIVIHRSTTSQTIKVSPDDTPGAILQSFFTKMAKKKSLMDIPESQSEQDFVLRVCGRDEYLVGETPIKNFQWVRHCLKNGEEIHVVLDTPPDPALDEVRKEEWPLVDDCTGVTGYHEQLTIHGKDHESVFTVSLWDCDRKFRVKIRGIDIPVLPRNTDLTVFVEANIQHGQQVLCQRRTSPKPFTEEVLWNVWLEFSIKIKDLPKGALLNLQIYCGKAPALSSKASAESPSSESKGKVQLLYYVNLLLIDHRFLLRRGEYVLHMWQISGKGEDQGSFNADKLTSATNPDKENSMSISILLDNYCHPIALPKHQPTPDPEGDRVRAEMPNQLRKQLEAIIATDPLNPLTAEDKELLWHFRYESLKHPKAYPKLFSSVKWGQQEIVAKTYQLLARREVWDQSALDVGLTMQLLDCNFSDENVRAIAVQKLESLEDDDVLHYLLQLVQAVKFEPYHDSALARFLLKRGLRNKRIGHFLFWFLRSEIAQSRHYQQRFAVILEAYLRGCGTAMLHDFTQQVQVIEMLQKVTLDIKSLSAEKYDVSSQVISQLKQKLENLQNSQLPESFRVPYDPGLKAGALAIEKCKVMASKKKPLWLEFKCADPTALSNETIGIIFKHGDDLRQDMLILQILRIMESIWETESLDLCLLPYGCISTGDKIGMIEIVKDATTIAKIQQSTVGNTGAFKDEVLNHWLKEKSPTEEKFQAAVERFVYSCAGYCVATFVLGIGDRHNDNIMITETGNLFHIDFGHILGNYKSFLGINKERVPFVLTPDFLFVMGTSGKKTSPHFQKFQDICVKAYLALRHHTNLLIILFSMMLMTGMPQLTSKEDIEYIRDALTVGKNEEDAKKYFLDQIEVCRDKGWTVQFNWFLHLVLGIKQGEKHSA

[1] = in vitro, read-out: PI3K α IC50
[2] = in vitro, read-out: PI3K β IC50
[3] = in vitro, read-out: PI3K δ IC50
[4] = in vitro, read-out: PI3K γ IC50

Sequence of p110β/p85α (P42338 whole entry): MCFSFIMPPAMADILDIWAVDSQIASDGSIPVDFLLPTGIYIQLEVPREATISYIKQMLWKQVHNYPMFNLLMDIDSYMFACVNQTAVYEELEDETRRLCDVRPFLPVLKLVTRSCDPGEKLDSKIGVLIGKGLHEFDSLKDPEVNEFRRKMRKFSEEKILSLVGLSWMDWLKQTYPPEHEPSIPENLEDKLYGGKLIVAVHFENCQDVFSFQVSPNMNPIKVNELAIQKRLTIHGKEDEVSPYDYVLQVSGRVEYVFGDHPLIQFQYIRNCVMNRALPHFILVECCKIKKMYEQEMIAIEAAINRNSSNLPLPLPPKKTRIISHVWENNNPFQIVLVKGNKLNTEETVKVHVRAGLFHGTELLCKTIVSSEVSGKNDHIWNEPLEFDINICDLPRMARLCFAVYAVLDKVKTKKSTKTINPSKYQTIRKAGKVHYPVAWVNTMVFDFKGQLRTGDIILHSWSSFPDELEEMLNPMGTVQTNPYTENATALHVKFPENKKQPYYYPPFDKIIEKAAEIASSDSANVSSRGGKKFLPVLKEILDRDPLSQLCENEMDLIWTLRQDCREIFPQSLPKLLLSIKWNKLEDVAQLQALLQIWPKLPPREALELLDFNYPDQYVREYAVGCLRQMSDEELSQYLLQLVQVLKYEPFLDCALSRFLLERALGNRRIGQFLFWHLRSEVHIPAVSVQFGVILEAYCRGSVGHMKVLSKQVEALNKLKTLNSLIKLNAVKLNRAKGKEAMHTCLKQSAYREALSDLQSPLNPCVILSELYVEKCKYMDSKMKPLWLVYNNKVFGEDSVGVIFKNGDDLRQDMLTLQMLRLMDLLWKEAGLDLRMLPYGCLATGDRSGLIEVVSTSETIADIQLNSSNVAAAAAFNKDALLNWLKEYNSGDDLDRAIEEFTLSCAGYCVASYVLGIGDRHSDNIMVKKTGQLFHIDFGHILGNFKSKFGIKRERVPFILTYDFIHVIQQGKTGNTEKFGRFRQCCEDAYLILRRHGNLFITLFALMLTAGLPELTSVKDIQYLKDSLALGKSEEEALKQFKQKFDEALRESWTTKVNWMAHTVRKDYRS
Sequence of p110β/p85α (P27986 whole entry partner): as the sequence (P27986 whole entry partner) above
Sequence of p110α/p85α (P42336 whole entry): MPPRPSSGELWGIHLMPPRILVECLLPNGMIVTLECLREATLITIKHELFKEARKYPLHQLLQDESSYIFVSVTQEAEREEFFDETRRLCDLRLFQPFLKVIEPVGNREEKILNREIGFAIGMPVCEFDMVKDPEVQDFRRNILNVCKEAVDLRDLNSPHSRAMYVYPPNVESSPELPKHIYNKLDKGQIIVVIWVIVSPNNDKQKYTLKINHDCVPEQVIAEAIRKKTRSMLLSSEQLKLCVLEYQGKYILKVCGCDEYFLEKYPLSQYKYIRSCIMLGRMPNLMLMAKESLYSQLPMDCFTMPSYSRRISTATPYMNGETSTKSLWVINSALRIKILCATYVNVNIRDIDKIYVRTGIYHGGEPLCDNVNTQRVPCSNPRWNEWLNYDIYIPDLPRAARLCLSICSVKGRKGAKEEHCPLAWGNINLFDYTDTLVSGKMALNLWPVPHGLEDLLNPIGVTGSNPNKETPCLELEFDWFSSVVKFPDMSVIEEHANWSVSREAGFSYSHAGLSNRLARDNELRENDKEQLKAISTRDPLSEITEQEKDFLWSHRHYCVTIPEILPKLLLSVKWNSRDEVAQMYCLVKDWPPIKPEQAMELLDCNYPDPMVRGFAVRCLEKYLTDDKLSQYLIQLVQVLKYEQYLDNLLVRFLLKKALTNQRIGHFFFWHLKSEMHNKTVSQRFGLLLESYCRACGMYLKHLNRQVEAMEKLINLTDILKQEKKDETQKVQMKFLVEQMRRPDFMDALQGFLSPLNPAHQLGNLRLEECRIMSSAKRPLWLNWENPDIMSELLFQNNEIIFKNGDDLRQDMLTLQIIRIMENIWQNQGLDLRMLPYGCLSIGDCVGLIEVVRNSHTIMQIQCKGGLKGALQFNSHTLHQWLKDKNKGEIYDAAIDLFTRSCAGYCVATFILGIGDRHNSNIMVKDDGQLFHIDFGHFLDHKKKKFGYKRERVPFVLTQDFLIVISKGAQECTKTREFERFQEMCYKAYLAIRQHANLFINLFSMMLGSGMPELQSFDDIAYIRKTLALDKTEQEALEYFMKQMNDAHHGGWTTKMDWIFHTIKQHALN
Sequence of p110α/p85α (P27986 whole entry partner): as the sequence (P27986 whole entry partner) above

IC50 (p110α/p85α; [1])	IC50 (p110β/p85α; [2])	IC50 (p110δ/p85α; [3])	IC50 (p110γ; [4])	IC50 (p110α/p85α; read-out: PI3K α In Vitro IC50)	IC50 (p110β/p85α; read-out: PI3K β In Vitro IC50)	IC50 (p110δ/p85α; read-out: PI3K δ In Vitro IC50)	IC50 (p110γ; read-out: PI3K γ In Vitro IC50)	SMILES
< 100 nM	< 1000 nM	< 1000 nM	< 1000 nM					Nc1nc2cc(-c3ccc4ncc(N5CC(N6CCOCC6)C5)nc4c3)cc(Cl)c2o1 [compound 358]
< 100 nM	< 1000 nM	< 10000 nM	< 100 nM					Nc1nc2cc(-c3ccc4ncc(C(=O)N5CCOCC5)n4c3)cc(Cl)c2o1 [compound 359]
< 100 nM	< 1000 nM	< 10000 nM	< 100 nM					Nc1nc2cc(-c3ccc4ncc(C(=O)N5CCOCC5)n4c3)cc(F)c2o1 [compound 360]
< 100 nM	< 1000 nM	< 10000 nM	< 1000 nM					Nc1nc2cc(-c3ccc4ncc(N5CC(N6CCOCC6)C5)nc4c3)cc(F)c2o1 [compound 361]
< 10000 nM	< 10000 nM	< 10000 nM	< 10000 nM					Cc1cc(-c2ccc3ncc(N4CC(N5CCOCC5)C4)nc3c2)cc2nc(N)oc12 [compound 365]
< 1000 nM	< 1000 nM	< 10000 nM	< 1000 nM					Nc1nc2cc(-c3ccc4ncc(N5CC(N)C5)nc4c3)ccc2o1 [compound 367]
< 100 nM	< 10000 nM	< 1000 nM	< 1000 nM					Cc1cc(-c2ccc3oc(N)nc3c2)cc2c(C(=O)N3CCCC3)cnn12 [compound 368]
< 1000 nM	< 10000 nM	< 10000 nM	< 10000 nM					Nc1nc2cc(-c3ccc4ncc(C(=O)N5CCOCC5)n4c3)c(F)cc2o1 [compound 372]
< 100 nM	< 10000 nM	< 10000 nM	< 10000 nM					Nc1nc2cc(-c3ccc4ncc(N5CC(N6CCOCC6)C5)nc4c3)c(F)cc2o1 [compound 373]
< 1000 nM	< 10000 nM	< 1000 nM	< 1000 nM					Nc1nc2cc(-c3ccc4ncc(N5CC[C@H](N6CCOCC6)C5)nc4c3)ccc2o1 [compound 375]
< 100 nM	< 10000 nM	< 10000 nM	< 100 nM					Nc1nc2cc(-c3ccc4ncc(N5CC[C@@H](N6CCOCC6)C5)nc4c3)ccc2o1 [compound 376]
< 100 nM	< 1000 nM	< 10000 nM	< 10000 nM					CN1CCN([C@H]2CCN(c3cnc4ccc(-c5ccc6oc(N)nc6c5)cc4n3)C2)CC1 [compound 381]
< 100 nM	< 1000 nM	< 10000 nM	< 1000 nM					CN(C)[C@H]1CCN(c2cnc3ccc(-c4ccc5oc(N)nc5c4)cc3n2)C1 [compound 382]
< 100 nM	< 100 nM	< 1000 nM	< 100 nM					Nc1nc2cc(-c3ccc4ncc(N5CCn6cccc6C5)nc4c3)ccc2o1 [compound 394]
				< 100 nM	< 1000 nM	< 1000 nM	< 100 nM	Cc1cc(-c2ccc3oc(N)nc3c2)cc2c(-c3ccncc3)cnn12 [compound 397]
				< 1000 nM	< 10000 nM	< 10000 nM	< 10000 nM	Nc1nc2cc(-c3ccn4ncc(C(=O)N5CCC(N6CCOCC6)CC5)c4c3)ccc2o1 [compound 398]
				< 100 nM	< 10000 nM	< 10000 nM	< 1000 nM	CC(Oc1nc(-c2ccc3ncc(C(=O)N4CCOCC4)n3c2)cnc1N)C(F)(F)F (centres unmarked) [compound 411]
				< 100 nM	< 1000 nM	< 10000 nM	< 1000 nM	Nc1nc2cc(-c3ccc4ncc(N5CCNC(C(F)F)C5)nc4c3)ccc2o1 (centres unmarked) [compound 413]
				< 100 nM	< 10000 nM	< 10000 nM	< 1000 nM	COc1ncc(-c2ccc3ncc(C(=O)N4CCOCC4)n3c2)cc1NS(C)(=O)=O [compound 416]
				< 100 nM	< 1000 nM	< 100 nM	< 100 nM	COc1ncc(-c2ccc3ncc(C(=O)N4CCOCC4)n3c2)cc1NS(=O)(=O)c1ccc(F)cc1 [compound 421]
